Earlier results as cited in patent publication US4842859A, “Pharmaceutical compositions for reducing hyperlipidemia and platelet-aggregation” (priority 1986, dated 1989).

What was measured:
[1] = system: transient ischemic attacks; settings: men; prior art
[2] = patients; prior art; listed as clofibrate

Row | Compound | effect on incidence of transient ischemic attacks [1] | side effects / toxic effects [2]
1 | CC(=O)Oc1ccccc1C(=O)O [Aspirin] | decrease the incidence of transient ischemic attacks | –
2 | CCOC(=O)C(C)(C)Oc1ccc(Cl)cc1 [Clofibrate] | – | decreased libido and breast tenderness
